Measured values from the supplement of paper PMC10331698.
± gives the standard deviation of the averaged measurements.

What was measured:
Assay in all cases: LOEC (log10 uM (lowest observed effect concentration))
Nonafluoropentanamide = compound: NC(=O)C(F)(F)C(F)(F)C(F)(F)C(F)(F)F [Nonafluoropentanamide]
Procedure: (§1)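 BioMAP Diversity Plus panel in human primary cell co-cultures, 4 concentrations in duplicate blinded samples. Responses are log10 fold change versus DMSO control, processed with tcpl v2.1.0. A hit is called when responses at any concentration exceed the cutoff (the larger of 3*bmad or log10(1.2)); the lowest observed effect concentration (modl_ga, log10 uM) is reported for hits.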

[1] = compound: NS(=O)(=O)C(F)(F)C(F)(F)C(F)(F)C(F)(F)C(F)(F)C(F)(F)F [Perfluorohexanesulfonamide]
Procedure: as §1

[2] = compound: COC(=O)C(F)(F)C(F)(F)OC(F)(C(F)(F)F)C(F)(F)OC(F)=C(F)F [Methyl perfluoro(3-(1-ethenyloxypropan-2-yloxy)propanoate)]
Procedure: as §1

[3] = compound: O=C(O)C(F)(F)C(F)(F)C(F)(F)C(F)(F)C(F)(F)C(F)(F)C(F)(F)C(F)(F)C(F)(F)C(F)F [11-H-Perfluoroundecanoic acid]
Procedure: as §1

[4] = compound: O=S(=O)(Cl)C(F)(F)C(F)(F)C(F)(F)C(F)(F)C(F)(F)C(F)(F)C(F)(F)C(F)(F)F [Perfluoro-1-octanesulfonyl chloride]
Procedure: as §1

[5] = compound: C=CC(=O)OCC(F)(F)C(F)(F)C(F)(F)COC(=O)C=C [1H,1H,5H,5H-Perfluoro-1,5-pentanediol diacrylate]
Procedure: as §1

[6] = compound: O=S(=O)(O)CCC(F)(F)C(F)(F)C(F)(F)C(F)(F)C(F)(F)C(F)(F)F [6:2 Fluorotelomer sulfonic acid]
Procedure: as §1

[7] = compound: FC(F)(F)C(F)(F)C(F)(F)C(F)(F)C(F)(F)C(F)(F)C(F)(F)I [1-Iodopentadecafluoroheptane]
Procedure: as §1

Row | Test System | LOEC (log10 uM) (Nonafluoropentanamide) | LOEC (log10 uM) [1] | LOEC (log10 uM) [2] | LOEC (log10 uM) [3] | LOEC (log10 uM) [4] | LOEC (log10 uM) [5] | LOEC (log10 uM) [6] | LOEC (log10 uM) [7]
1 | 3C Thrombomodulin down | 1.31 ± 0.66 | – | – | – | – | – | – | –
2 | BE3C MMP1 up | – | 1.78 | 0.573 ± 0.39 | – | – | – | – | –
3 | BE3C tPA down | – | 1.78 | 0.0731 ± 0.32 | 1.3 | 1.78 | 1.3 | – | –
4 | IMphg IL1a up | – | 1.54 ± 0.34 | 0.845 | – | – | – | – | –
5 | IMphg IL8 up | – | 1.78 | 0.301 | – | – | – | – | –
6 | LPS IL8 up | – | – | – | – | 1.78 | – | 1.54 ± 0.34 | –
7 | MyoF ACTA1 down | – | – | – | 1.54 ± 0.34 | – | 0.845 | – | 0.301
8 | MyoF CollagenI down | – | – | – | 1.3 | – | 1.3 | – | 0.845
9 | MyoF CollagenIII down | – | – | – | 1.3 | 1.78 | 1.3 | – | 0.845
10 | MyoF CollagenIV up | – | 1.3 | – | 1.07 ± 0.32 | 1.78 | – | – | 0.845
11 | MyoF MMP1 up | – | – | – | – | – | 0.845 | – | 0.573 ± 0.39
12 | MyoF SRB down | – | 1.78 | – | 1.3 | – | 1.3 | – | 0.845
13 | MyoF VCAM1 down | – | – | – | 1.3 | – | 0.845 | – | 0.573 ± 0.39
14 | hDFCGF IP10 down | – | 1.54 ± 0.34 | 0.845 | 0.573 ± 0.39 | – | 0.301 | – | –
15 | hDFCGF ITAC down | – | 1.78 | 0.845 | 0.573 ± 0.39 | – | 0.301 | – | –
